Experimental data from patent publication US9273063B2, “Method for preparing a rifaximin product” (Salix Pharmaceuticals, Inc., priority 2007, dated 2016).

Assays:
[1] = Dissolution in ethanol, amorphous vs crystalline form; format: physicochemical; conditions: without stirring
Experimental: The dissolution profile of the substance in amorphous form was also determined, and compared with that of the substance in crystalline form.

[2] = Water solubility in dissolution tester (distilled water, 37° C., 100 rpm, spectrophotometric analysis); format: physicochemical; conditions: 37° C.±0.5° C.
Experimental: Moreover, with regard to water solubility, after conditioning a dissolution tester (Pharma Test Type PTW S III s/n 5390) using distilled water at a temperature of 37° C.±0.5° C. at a speed of 100 rpm, four dissolutions were carried out, in each of which the first three vessels of the dissolution tester were used for the substance in crystalline form and the last three for the substance in amorphous form.
10 ml of the solute were withdrawn from each vessel after 15 minutes of stirring; the withdrawn samples were filtered with 0.45 μm filters and subjected to spectophotometric analysis, repeating the operation after 30 and 60 minutes.

dissolved percentage compared with that of the substance in crystalline form [2] | concentration of dissolved substance relative to that of the substance in amorphous form ([2]; after one hour of dissolution) | SMILES | dissolution behaviour in ethanol [1]
one order of magnitude greater | – | CO[C@H]1/C=C/O[C@@]2(C)Oc3c(C)c(O)c4c(O)c(c5c(nc6cc(C)ccn65)c4c3C2=O)NC(=O)/C(C)=C\C=C\[C@H](C)[C@H](O)[C@@H](C)[C@@H](O)[C@@H](C)[C@H](OC(C)=O)[C@@H]1C [amorphous form, Rifaximin] | easily dissolves in ethanol even without stirring
– | about 7% | CO[C@H]1/C=C/O[C@@]2(C)Oc3c(C)c(O)c4c(O)c(c5c(nc6cc(C)ccn65)c4c3C2=O)NC(=O)/C(C)=C\C=C\[C@H](C)[C@H](O)[C@@H](C)[C@@H](O)[C@@H](C)[C@H](OC(C)=O)[C@@H]1C [crystalline form, Rifaximin] | less wettable
